Consider three compounds from US7846936B2, “Combinations for the treatment of diseases involving cell proliferation, migration or apoptosis of myeloma cells or angiogenesis” (Boehringer Ingelheim International GmbH, priority 2003, dated 2010).

The test system of data set [1] is SKOV-3 cells (human ovarian carcinoma). Nature of the data set: SKOV-3 xenograft combination experiment. The note with it: SKOV-3 tumours in nude mice, 15 mg/kg daily per os, day 31. Format: in vivo, nude mice (NMRI nu/nu). On the procedure: The following experiment was performed in order to investigate the effect of a combination therapy with suboptimal doses of an antagonist of at least one receptor selected from VEGFR 1 to 3, PDGFRα and β, FGFR1, 2 and 3, EGFR, HER2, IGF1R, HGFR or c-Kit, which is further an antagonist of a src tyrosine kinase family member, namely the di-chloride salt of (Z)-3-(1-(4-(N-((4-methyl-piperazin-1-yl)-methylcarbonyl)-N-methyl-amino)-phenylamino)-1-phenyl-methylene]-6-methoxycarbonyl-2-indolinone (compound referred to as C12(T)), which is the di-chloride salt of above exemplified compound (T), and a dual antagonist of the epidermal growth factor (EGF) receptor and of the human epidermal growth factor of type 2 (HE type 2) receptor, namely the compound 4-[(3-chloro-4-fluorophenyl)amino]-6-{[4-(N,N-dimethylamino)-1-oxo-2-buten-1-yl]amino}-7-((S)-tetrahydrofuran-3-yloxy)-quinazoline, (compound referred to as EGFR/HER2 inh., and described in WO 02/50043 as exemplified compound of Example 1(10)), on the reduction of tumour growth, in comparison to the mono-therapies at the same doses. […]
Daily per os treatment was initially performed for 31 days. […] The calculated treated tumour to control tumour (T/C) ratio at this time point was 35% for the group treated with 15 mg/kg EGFR/HER2 inh., 32% for the group treated with 50 mg/kg C12(T), and 13% for the group treated with the combination. […]

The nature of another data set: oral bioavailability. The data set is classed as in vivo. The note with it: mice.
Data set [2] deals with IL-6 secretion by BMSC mono-cultures. Description: IL-6 secretion of BMSC mono-cultures (Table III). Format: cell-based. An excerpt:
(§1) For comparison, the inhibition effect on BMSC mono-cultures (native) and, as control, the level of secretion of U266 mono-cultures, were also investigated.

Data set [3] relates to IL-6 secretion by BMSC cells. Description: IL-6 secretion by bone marrow stromal cells (Table II). Format: cell-based. An excerpt: For comparison, the inhibition effect with inhibition of anti-bFGF (+anti-bFGF), anti-VEGF (+anti-VEGF) and a combination of anti-bFGF and anti-VEGF (+anti-VEGF+anti-bFGF) were also investigated.
The next data set deals with cell lines with t(4;14). Nature of the data set: apoptosis on cell lines with t(4;14). Format: cell-based. The note with it: in vitro.
Data set [4] deals with FaDu tumours (human squamous carcinoma cells). Description: in vivo xenograft experiment, subcutaneous FaDu tumours. The note with it: nude mice, 100 mg/kg orally twice weekly. How it is done: By increasing the dose to 200 mg/kg orally twice weekly an even better anti-tumour effect is expected.
In data set [5] the test system is IL-6 secretion by BMSC cells. Description: IL-6 secretion by bone marrow stromal cells (Table II). Format: cell-based. The source holds these as a separate data set.
The target in another data set is CDK2 (Homo sapiens, UniProt P24941). Description: kinase inhibition panel (Table I). The data set is classed as biochemical.
A further data set has as its target Lyn (Homo sapiens, UniProt P07948). Description: kinase inhibition panel (Table I). Format: biochemical.
In data set [6] the test system is t(14;16) MM1.s myeloma cells. Nature of the data set: apoptosis of myeloma cells. The data set is classed as cell-based.
Data set [7] concerns IL-6 secretion in U-266 + BMSC co-cultures. Nature of the data set: IL-6 secretion in transwell and contact co-cultures of U-266 myeloma cells and BMSC cells (Table III). Format: cell-based.
Excerpt: as §1

The conditions of data set [8]: clinically tested, also in conjunction with chemotherapy; cited from earlier work.

Molecules are shown by their SMILES.

Sequence of Lyn (P07948 whole entry, species assumed): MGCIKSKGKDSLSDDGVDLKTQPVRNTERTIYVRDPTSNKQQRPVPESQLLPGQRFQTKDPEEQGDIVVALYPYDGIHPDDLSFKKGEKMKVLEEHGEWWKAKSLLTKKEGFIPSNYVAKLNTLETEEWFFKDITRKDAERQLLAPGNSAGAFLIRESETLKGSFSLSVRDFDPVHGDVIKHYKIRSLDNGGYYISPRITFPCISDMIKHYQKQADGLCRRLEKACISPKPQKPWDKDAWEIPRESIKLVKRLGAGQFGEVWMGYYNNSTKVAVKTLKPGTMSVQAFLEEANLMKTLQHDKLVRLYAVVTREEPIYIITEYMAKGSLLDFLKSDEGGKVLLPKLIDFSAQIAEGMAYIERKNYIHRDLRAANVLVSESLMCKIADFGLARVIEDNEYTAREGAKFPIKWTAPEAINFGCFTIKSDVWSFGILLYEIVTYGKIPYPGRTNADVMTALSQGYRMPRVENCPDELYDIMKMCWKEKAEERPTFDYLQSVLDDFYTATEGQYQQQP

Take `CN(C)CC=CC(=O)Nc1cc2c(Nc3ccc(F)c(Cl)c3)ncnc2cc1O[C@H]1CCOC1` [EGFR/HER2 inh., 4-[(3-chloro-4-fluorophenyl)amino]-6-{[4-(N,N-dimethylamino)-1-oxo-2-buten-1-yl]amino}-7-((S)-tetrahydrofuran-3-yloxy)-quinazoline]: the “treated tumour to control tumour (T/C) ratio” value in data set [1] is given as 35%.

As to `CCS(=O)(=O)O.COC(=O)c1ccc2c(c1)NC(=O)/C2=C(\Nc1ccc(N(C)C(=O)CN2CCN(C)CC2)cc1)c1ccccc1` [MES(T), monoethanesulfonate salt of 3-Z-[1-(4-(N-((4-methyl-piperazin-1-yl)-methylcarbonyl)-N-methyl-amino)-anilino)-1-phenyl-methylene]-6-methoxycarbonyl-2-indolinone], in the data set “oral bioavailability”, the oral bioavailability entry is given as “orally bioavailable”. The “IL-6 secretion, BMSC mono-cultures” value in data set [2] (MES(T) 50 nM) turned out to be 213.4; in [2] (MES(T) 125 nM) it was 192.1; in [2] (MES(T) 250 nM), 69.9; in [2] (MES(T) 500 nM) it was 38.6. The “IL-6 secretion by BMSC cells” value in [3] (+anti-VEGF + anti-bFGF, MES(T) 250 nM) was determined as 45.0; in data set [3] (+anti-VEGF + anti-bFGF, MES(T) 500 nM), 13.5; in data set [3] (+anti-bFGF, MES(T) 50 nM), 81.3; in data set [3] (+anti-bFGF, MES(T) 125 nM) it was 42.4; in data set [3] (+anti-bFGF, MES(T) 250 nM) it was 33.0; in [5] (+VEGF, MES(T) 10 nM), 122.3. Besides, the “IL-6 secretion by BMSC cells” value in [5] (+VEGF, MES(T) 50 nM) came to 130.7; in [5] (+VEGF, MES(T) 125 nM) it was 141.0; in data set [5] (+VEGF, MES(T) 250 nM) it was 65.5; in data set [5] (+VEGF, MES(T) 500 nM), 14.8; in data set [5] (+anti-VEGF + anti-bFGF, MES(T) 10 nM), 68.1; in data set [5] (+anti-VEGF + anti-bFGF, MES(T) 50 nM), 63.4. The “IL-6 secretion by BMSC cells” value in data set [5] (+anti-VEGF + anti-bFGF, MES(T) 125 nM) turned out to be 86.1; in [5] (+anti-VEGF, MES(T) 10 nM) it was 148.6; in data set [5] (+anti-VEGF, MES(T) 50 nM), 155.2; in data set [5] (+anti-VEGF, MES(T) 125 nM), 166.7; in data set [5] (+anti-VEGF, MES(T) 250 nM), 89.4; in data set [5] (+anti-VEGF, MES(T) 500 nM), 16.2. Also, the “IL-6 secretion by BMSC cells” value is given as 68.9 in data set [5] (+anti-bFGF, MES(T) 10 nM); 20.2 in data set [5] (+anti-bFGF, MES(T) 500 nM); 150.5 in [5] (+bFGF, MES(T) 10 nM); 179.7 in data set [5] (+bFGF, MES(T) 50 nM); 91.2 in data set [5] (+bFGF, MES(T) 125 nM); 76.9 in data set [5] (+bFGF, MES(T) 250 nM). Moreover, the “IL-6 secretion by BMSC cells” value is on record as 43.4 in data set [5] (+bFGF, MES(T) 500 nM); 130.2 in [5] (native, MES(T) 10 nM); 170.4 in data set [5] (native, MES(T) 50 nM); 97.5 in [5] (native, MES(T) 125 nM); 76.5 in data set [5] (native, MES(T) 250 nM); 39.6 in [5] (native, MES(T) 500 nM). For the same compound, the “apoptosis on cell lines with t(4;14)” value with cell lines with t(4;14) is reported as “Direct induction of apoptosis”. For the same compound, the “T/C (Tumour/Control) value” in data set [4] stood at 31%. Besides, the IC50 (usually the midpoint of a concentration-inhibition curve) against CDK2 is above 10 µM; against Lyn it was 0.195 µM. Besides, the “effect on dexamethasone-induced apoptosis” value in data set [6] (combined with dexamethasone) is recorded as “enhances the apoptosis induced by dexamethasone”. Moreover, the “apoptosis of myeloma cells” value in data set [6] (t(14;16) MM1.s myeloma cells, MES(T) alone) was “pro-apoptotic effects”. Also, the “IL-6 secretion, Contact U-266 + BMSC co-cultures” value came out at 259.6 in data set [7] (MES(T) 125 nM), 199.4 in data set [7] (MES(T) 250 nM) and 114.7 in [7] (MES(T) 500 nM). Further, in data set [7] (transwell and contact co-cultures), the “effect on IL-6 secretion of BMSC cultures stimulated by myeloma cells” value was “decrease to its basal (native) value the level of IL-6 secretion”. For the same compound, the “IL-6 secretion, Transwell U-266 + BMSC co-cultures” value in [7] (MES(T) 50 nM) stood at 354.5; in [7] (MES(T) 125 nM), 297.6; in data set [7] (MES(T) 250 nM), 231.1; in data set [7] (MES(T) 500 nM), 123.9.

`Cc1cc(C)c(/C=C2\C(=O)Nc3ccccc32)[nH]1` [SU5416]: the “side effect in clinical testing” value in [8] was “thromboembolic events”.
